This passage reports IC50 results from patent US12534452B2, “N-(1H-imidazol-2-yl)benzamide compound and pharmaceutical composition comprising the same as active ingredient” (KAINOS MEDICINE, INC., priority 2019, dated 2026).

As usually defined, the IC50 is the concentration at which inhibition is half-maximal. Lower therefore signals higher potency.

A value given as a limit tells only on which side of the number the result lay.

The experiment deals with IRAK4 (Homo sapiens (Human), UniProt Q9NWZ3). The experiment can be described thus: In vitro IRAK4 phosphorylation activity assay. The following applies: [γ-33P]-ATP, myelin basic protein substrate, 40 minutes at room temperature; categories. Type of experiment: biochemical. The essentials:
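Radiometric filter-binding assay, no compound–kinase preincubation; 8 mM MOPS pH 7.0, 0.2 mM EDTA, 10 mM Mg acetate, 0.33 mg/mL myelin basic protein substrate, [γ-33P]-ATP. Reaction 40 min at room temperature, stopped with phosphoric acid, scintillation counting; IC50 reported in categories.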

Chain of IRAK4 (Q9NWZ3 whole entry): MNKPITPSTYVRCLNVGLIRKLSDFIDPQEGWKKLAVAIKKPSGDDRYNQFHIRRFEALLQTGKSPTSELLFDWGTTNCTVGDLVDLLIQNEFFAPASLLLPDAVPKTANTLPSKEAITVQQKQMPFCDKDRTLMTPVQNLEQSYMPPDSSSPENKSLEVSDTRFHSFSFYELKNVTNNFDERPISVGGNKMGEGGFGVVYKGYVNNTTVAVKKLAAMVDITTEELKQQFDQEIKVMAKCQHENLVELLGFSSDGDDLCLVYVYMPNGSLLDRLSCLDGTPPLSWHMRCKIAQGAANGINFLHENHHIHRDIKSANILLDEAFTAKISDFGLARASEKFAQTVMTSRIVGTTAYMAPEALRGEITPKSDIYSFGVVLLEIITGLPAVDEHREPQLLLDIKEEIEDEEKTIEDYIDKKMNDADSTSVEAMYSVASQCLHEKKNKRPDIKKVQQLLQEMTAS

Consider `Cn1cc(-c2cccc(C(=O)Nc3nc(CCCCCCN4CCCCCC4)cn3-c3ccccc3)c2)cn1` [Example 223, N-(4-(6-(azepan-1-yl)hexyl)-1-phenyl-1H-imidazol-2-yl)-3-(1-methyl-1H-pyrazol-4-yl)benzamide], for which the IC50 is < 50 nM. As for `CNC(=O)Cc1cn(-c2ccccc2)c(NC(=O)c2cccc(-c3cn[nH]c3)c2)n1` [Example 41, N-(4-(2-(methylamino)-2-oxoethyl)-1-phenyl-1H-imidazol-2-yl)-3-(1H-pyrazol-4-yl)benzamide], the figure is > 100 nM. `CCOC(C)n1cc(-c2cccc(C(=O)Nc3nc(CCCCCCN4CCCCC4)cn3-c3ccccc3)c2)cn1` (stereo not drawn) [Example 138, 3-(1-(1-ethoxyethyl)-1H-pyrazol-4-yl)-N-(1-phenyl-4-(6-(piperidin-1-yl)hexyl)-1H-imidazol-2-yl)benzamide]: the half-maximal inhibitory concentration (IC50) lay within 50 to 100 nM. Compound `CN1CCN(NC(=O)CCCc2cn(-c3ccccc3)c(NC(=O)c3cccc(-c4cnn(C)c4)c3)n2)CC1` [Example 153, 3-(1-methyl-1H-pyrazol-4-yl)-N-(4-(4-((4-methylpiperazin-1-yl)amino)-4-oxobutyl)-1-phenyl-1H-imidazol-2-yl)benzamide] yielded an IC50 of 50 to 100 nM. In the case of `O=C(Nc1nc(CCCCCCN2CCCCC2)cn1-c1ccccc1)c1cccc(-c2ccncc2)c1` [Example 268, N-(1-phenyl-4-(6-(piperidin-1-yl)hexyl)-1H-imidazol-2-yl)-3-(pyridin-4-yl)benzamide] it was 50 to 100 nM; in that of `C[C@@H]1CCCN1C(=O)CCc1cn(-c2ccccc2)c(NC(=O)c2cccc(-c3cn[nH]c3)c2)n1` [Example 23, (R)—N-(4-(3-(2-methylpyrrolidin-1-yl)-3-oxopropyl)-1-phenyl-1H-imidazol-2-yl)-3-(1H-pyrazol-4-yl)benzamide], < 50 nM; in that of `CN1CCN(C(=O)CCCc2cn(-c3ccc(F)cc3)c(NC(=O)c3cccc(-c4cnn(C)c4)c3)n2)CC1` [Example 299, N-(1-(4-fluorophenyl)-4-(4-(4-methylpiperazin-1-yl)-4-oxobutyl)-1H-imidazol-2-yl)-3-(1-methyl-1H-pyrazol-4-yl)benzamide], < 50 nM. As to `CNC(=O)Cc1cn(-c2ccccc2)c(NC(=O)c2cccnc2)n1` [Example 51, N-(4-(2-(methylamino)-2-oxoethyl)-1-phenyl-1H-imidazol-2-yl)nicotinamide], the IC50 is > 100 nM. For the compound `CN1CCN(CCCCc2cn(-c3ccccc3)c(NC(=O)c3cccc(-c4cnn(C)c4)c3)n2)CC1` [Example 221, 3-(1-methyl-1H-pyrazol-4-yl)-N-(4-(4-(4-methylpiperazin-1-yl)butyl)-1-phenyl-1H-imidazol-2-yl)benzamide], the IC50 was < 50 nM.

In the case of `CN(C)C1CCN(C(=O)CCCc2cn(-c3ccccc3)c(NC(=O)c3cccc(-c4ccc5ncsc5c4)c3)n2)CC1` [Example 281, 3-(benzo[d]thiazol-6-yl)-N-(4-(4-(4-(dimethylamino)piperidin-1-yl)-4-oxobutyl)-1-phenyl-1H-imidazol-2-yl)benzamide], the half-inhibitory concentration (IC50) was < 50 nM. In the case of `C[C@@H]1CCCCN1C(=O)CCCc1cn(-c2ccccc2)c(NC(=O)c2cccc(-c3cn[nH]c3)c2)n1` [Example 61, (R)—N-(4-(4-(2-methylpiperidin-1-yl)-4-oxobutyl)-1-phenyl-1H-imidazol-2-yl)-3-(1H-pyrazol-4-yl)benzamide] it was < 50 nM. On to `Cn1cc(-c2cccc(C(=O)Nc3nc(CCCC(=O)N4CCCCC4)cn3-c3ccccc3)c2)cn1` [Example 142, 3-(1-methyl-TH-pyrazol-4-yl)-N-(4-(4-oxo-4-(piperidin-1-yl)butyl)-1-phenyl-1H-imidazol-2-yl)benzamide], for which the IC50 was < 50 nM.
